What was measured:
[1] = test system: NAD(P)H:quinine oxidoreductase (NQO1); conditions: oral administration, mammary epithelium; cited from earlier work
heme oxygenase-1 (HO-1) = conditions: oral administration, mammary epithelium; cited from earlier work
myrosinase = test: Conversion of glucoraphanin to sulforaphane in simulated intestinal fluid (Example 5); assay type: biochemical, broccoli; conditions: 38° C., 0.25 to 1.00 mmol/Liter ascorbic acid, FIG. 4
Description: Conversion of Glucoraphanin to Sulforaphane in the Presence of Simulated Intestinal Fluid. Simulated Intestinal Fluid (SW) powder, a commercially supplied concentrate closely approximating the human intestinal content in terms of composition, pH and ionic strength, was used. The experiment utilized a USP Dissolution Apparatus 2 (paddles), where into six dissolution vessels 500 mL of Simulated Intestinal Fluid was dispensed, along with 150 mg of freeze-dried broccoli sprout powder as a source of myrosinase. […] Aliquots were withdrawn every 15 minutes, and assayed for sulforaphane.

HepG2 cells = test: Glutathione levels in HepG2 cells (o-phthalaldehyde fluorescence); assay type: cell-based, human
Description: The following study was conducted to determine the effect of the combination of sulforaphane and silibinin on glutathione levels. Glutathione plays an important role in the body, as it can serve as an antioxidant, detoxifier, and immunity enhancer. Decreased levels of glutathione can cause a patient to be susceptible to oxidative stress, illness, and cancer. Therefore, an increase in glutathione levels is a beneficial effect.
In the study, the human liver cancer cell line, HepG2 cells were treated with DMSO (vehicle control), sulforaphane (SFN), silibinin (Silib), or the combination of sulforaphane and silibinin, for 24 hours. Cell lysates were collected and glutathione levels were measured using o-phthalaldehyde (OPT) as a fluorescent reagent. FIG. 5 and FIG. 6 show the results of the study.
In Part 1 of the study, the effect of 0.5 μM SFN was compared to various concentrations of silibinin and to the combination of 0.5 μM SFN and silibinin at various concentrations. […] An increase in glutathione levels is a beneficial effect. The results are depicted in FIG. 5.
In Part 2 of the study, the effect of 2 μM SFN was compared to various concentrations of silibinin and to the combination of 2 μM SFN and silibinin at various concentrations. […] An increase in glutathione levels is a beneficial effect to detoxify cells. The results are depicted in FIG. 6.

SMILES: C[S+]([O-])CCCC/C(=N\OS(=O)(=O)O)S[C@@H]1O[C@H](CO)[C@@H](O)[C@H](O)[C@H]1O (stereo partly drawn) [GR, 1-S-[(1E)-5-(methylsulfinyl)-N-(sulfonatooxy)pentanimidoyl]-1-thio-β-D-glucopyranose]
- Increase in NQO1 enzymatic activity [1]: 3 fold
- Elevated immunostaining of HO-1 enzyme (heme oxygenase-1 (HO-1)): 4 fold

SMILES: O=C1O[C@H]([C@@H](O)CO)C(O)=C1O [ascorbic acid]
- Yield of sulforaphane versus ascorbic acid concentration (myrosinase): direct correlation between larger yield of sulforaphane and higher concentrations of ascorbic acid

SMILES: C[S+]([O-])CCCCN=C=S (centres unmarked) [sulforaphane, 1-isothiocyanato-4-methylsulfinylbutane]
- Glutathione levels compared to DMSO (vehicle) control (HepG2 cells; Part 1, 24 hours, 0.5 μM SFN, 100, 200, 300 μM Silib, FIG. 5): remained the same
- Glutathione levels compared to the control (HepG2 cells; Part 2, 24 hours, 2 μM SFN, 100, 300 μM Silib, FIG. 6): remained the same
